Literature values in patent US5935954A, “Compounds with improved multi-drug resistance activity” (Vertex Pharmaceuticals Incorporated, priority 1997, dated 1999).

Assays:
[1] = system: multi-drug resistant ("MDR") cells; conditions: cited from earlier work
[2] = system: rat pheochromocytoma cell line; conditions: with NGF; cited from earlier work
sensory ganglia = conditions: cited from earlier work
[3] = system: FK506 binding protein or FKBP12; conditions: cited from earlier work
nerve cells = conditions: cited from earlier work

| SMILES | sensitization of MDR cells / activity against multi-drug resistance [1] | neurite outgrowth [2] | neurotrophic effects (sensory ganglia) | binding to FKBP12 [3] | stimulation of neurite outgrowth (nerve cells) |
| --- | --- | --- | --- | --- | --- |
| C=CC[C@@H]1/C=C(\C)C[C@H](C)C[C@H](OC)[C@H]2O[C@@](O)(C(=O)C(=O)N3CCCC[C@H]3C(=O)O[C@H](/C(C)=C/[C@@H]3CC[C@@H](O)[C@H](OC)C3)[C@H](C)[C@@H](O)CC1=O)[C@H](C)C[C@@H]2OC [FK506] | effective against multi-drug resistance | acts synergistically | demonstrated similar neurotrophic effects | have the ability to bind | effective in stimulating neurite outgrowth |
| CO[C@H]1C[C@@H]2CC[C@@H](C)[C@@](O)(O2)C(=O)C(=O)N2CCCC[C@H]2C(=O)O[C@H]([C@H](C)C[C@@H]2CC[C@@H](O)[C@H](OC)C2)CC(=O)[C@H](C)/C=C(\C)[C@@H](O)[C@@H](OC)C(=O)[C@H](C)C[C@H](C)/C=C/C=C/C=C/1C [rapamycin] | – | did not inhibit the effects of FK-506 on neurite outgrowth, but rather was neurotrophic itself, displaying an additive effect with FK-506 | those effects were blocked by rapamycin | have the ability to bind | – |
